Results: patent US4803224A, “Antiviral antibiotic complex” (Bristol-Myers Company, priority 1986, dated 1989)
Entries after “also recorded” stand apart in the source; their conditions may differ. Read-outs that look alike come from different tables or passages of the source.

Assays:
Assay type in all cases: cell-based
[1] = test system: Haemophilus influenza A2241; assay: 2-fold serial broth dilution, nutrient broth
[2] = test system: Staphylococcus aureus Smith; assay: 2-fold serial broth dilution, nutrient broth
[3] = test system: Gram-positive and Gram-negative bacteria; assay: In vitro antibacterial activity, 2-fold serial broth dilution, overall
[4] = test system: herpes simplex virus type I (HSV-1); assay: Plaque reduction assay, HSV-1-Vero cell system; details: for Antiviral activity (in words): HSV-1, relative to the compounds tested; for Plaque reduction assay, Activity vs HSV-1 (ID50): Vero cell
[5] = test system: Enterobacter cloacae A9656; assay: 2-fold serial broth dilution, nutrient broth
Escherichia coli Juhl = assay: 2-fold serial broth dilution, nutrient broth
[6] = test system: Klebsiella pneumoniae A9977; assay: 2-fold serial broth dilution, nutrient broth
[7] = test system: Streptococcus faecalis A9612; assay: 2-fold serial broth dilution, nutrient broth
Proteus mirabilis A9554 = assay: 2-fold serial broth dilution, nutrient broth
[8] = test system: Staphylococcus aureus BX-1633-2; assay: 2-fold serial broth dilution, nutrient broth
[9] = test system: herpes simplex virus type I (HSV-1); assay: Dye-uptake assay, HSV-1-Vero cell system; details: for Dye-uptake assay, Activity vs HSV-1 (ID50): Vero cell
Protocol: (§1) The results are shown in Table 2 together with their cytotoxicity against the host cells.
In order to examine the relationship between peptide chain length and antiviral activity, a partial acid hydrolysis of BU-2231 V was carried out by heating with 6N HCl at 100 deg. C. for one hour. The hydrolyzate was chromatographed on CM-cellulose to yield 8 peptide fragments. Number of D-α,γ-diaminobutyric acid residues in each peptide was determined by the DNP method and antiviral activity against HSV-1 assessed by the dye-uptake assay (Table 4).

[10] = test system: Pseudomonas aeruginosa A9930; assay: 2-fold serial broth dilution, nutrient broth
[11] = test system: Serratia marcescens A20019; assay: 2-fold serial broth dilution, nutrient broth
[12] = test system: Bacillus subtilis PCI-219; assay: Paper disc-agar diffusion method; details: "are believed to be"
From the text: (§2) The production of BU-2231 in the fermentation medium may be followed readily during the course of fermentation by the paper disc-agar diffusion method using Bacillus subtilis PCI-219 and Mycobacterium smegmatis strain M6-3 as test organisms. The BU-2231 A and BU-2231 B components of BU-2231 antibiotic complex as well as the co-produced aminoglycoside complex (also referred to as the "nebramycin factors" or "nebramycin components") are believed to be active against B. subtilis but only the BU-2231 A and B comppnents show activity against Mycobacterium smegmatis strain M6-3.

[13] = test system: Mycobacterium smegmatis strain M6-3; assay: Paper disc-agar diffusion method
From the text: as §2

Vero cell [14] = assay: Cytotoxicity against host cells (dye-uptake assay)
From the text: as §1

Vero cell [15] = assay: Cytotoxicity against host cells (plaque reduction assay)
From the text: as §1

| Molecule | MIC by TDT [1] | MIC by TDT [2] | Antibacterial activity (in words) [3] | Plaque reduction assay, Activity vs HSV-1 (ID50) [4] | MIC by TDT [5] | MIC by TDT (Escherichia coli Juhl) | MIC by TDT [6] | MIC by TDT [7] | MIC by TDT (Proteus mirabilis A9554) | MIC by TDT [8] | Dye-uptake assay, Activity vs HSV-1 (ID50) [9] | MIC by TDT [10] | MIC by TDT [11] | Activity against B. subtilis (in words) [12] | Activity against Mycobacterium smegmatis strain M6-3 (in words) [13] | further results |
| --- | --- | --- | --- | --- | --- | --- | --- | --- | --- | --- | --- | --- | --- | --- | --- | --- |
| α-poly-L-lysine [α-Poly-L-lysine (MW: 3,500)] | 100 µg/mL | 12.5 µg/mL | moderate inhibitory activity | 42 µg/mL | > 100 µg/mL | 12.5 µg/mL | 12.5 µg/mL | > 100 µg/mL | 50 µg/mL | 25 µg/mL | 100 µg/mL | > 100 µg/mL | > 100 µg/mL |  |  | Antibacterial activity (in words) ([3]; listed as α-poly-L-lysines): little weaker than others; Antiviral activity (in words) ([4]; listed as lower molecular α-poly-L-lysine): least active |
| Cc1c(N)nc([C@H](CC(N)=O)NC[C@@H](N)C(N)=O)nc1C(=O)N[C@H](C(=O)N[C@H](C)[C@@H](O)CC(=O)N[C@@H](C(=O)NC(O[C@@H]1O[C@@H](C)[C@@H](N)[C@@H](O)[C@H]1O)C(O)c1nc(-c2nc(C(=O)NCCCNCCCCN)cs2)cs1)[C@@H](C)O)C(O[C@@H]1O[C@@H](CO)[C@H](O)[C@@H](O)[C@@H]1O[C@H]1O[C@H](CO)[C@@H](O)[C@@H](OC(N)=O)[C@@H]1O)c1cnc[nH]1 (stereo partly shown) [BU-2231 B] |  |  |  |  |  |  |  |  |  |  |  |  |  | active | show activity |  |
| ε-poly-L-lysine | 12.5 µg/mL | 6.3 µg/mL | moderate inhibitory activity; also recorded: comparable | 2.6 µg/mL | 25 µg/mL | 6.3 µg/mL | 6.3 µg/mL | 50 µg/mL | 6.3 µg/mL | 6.3 µg/mL | 2.7 µg/mL | 12.5 µg/mL | 25 µg/mL |  |  | Dye-uptake assay, Cytotoxicity vs Vero cell (TCID50) (Vero cell [14]): > 100 µg/mL; Antiviral activity (in words) [4]: slightly less active than BU-2231 V; Plaque reduction assay, Cytotoxicity vs Vero cell (TCID50) (Vero cell [15]): 70 µg/mL; Antiviral activity (in words) ([9]; HSV-1): comparably active |
| Cc1c(N)nc([C@H](CC(N)=O)NC[C@H](N)C(N)=O)nc1C(=O)N[C@H](C(=O)N[C@H](C)[C@@H](O)CC(=O)N[C@H](C(=O)NC(O[C@@H]1O[C@@H](C)[C@@H](N)[C@@H](O)[C@H]1O)C(O)c1nc(-c2nc(C(=O)NCCCC(N)CC(=O)NCCCNCCCCN)cs2)cs1)[C@@H](C)O)[C@H](O[C@@H]1O[C@@H](CO)[C@@H](O)[C@H](O)[C@@H]1O[C@H]1O[C@H](CO)[C@@H](O)[C@H](OC(N)=O)[C@@H]1O)c1c[nH]cn1 (stereo partly shown) [BU-2231 A] |  |  |  |  |  |  |  |  |  |  |  |  |  | active | show activity |  |
| NCC[C@@H](N)C(=O)O [D-α,γ-DAB, D-α,γ-diaminobutyric acid] |  |  |  |  |  |  |  |  |  |  |  |  |  |  |  | IC50 ([9]; Human alphaherpesvirus 1, Vero, partial hydrolyzates of BU-2231V, read-out: Anti-HSV-1 activity ID50): > 660 µg/mL |
| α-poly-L-lysine [α-Poly-L-lysine (MW: 25,000)] |  |  |  | 1.8 µg/mL |  |  |  |  |  |  | > 20 µg/mL |  |  |  |  | Antiviral activity (in words) ([4]; listed as higher molecular α-poly-L-lysine): slightly less active than BU-2231 V |
